According to publication PMC13304593 (Pharmaceuticals, 2026):

Test: Pharmacokinetics of DTX in mice after oral administration
Type: in vivo, Kunming mice
Conditions: lung, oral 20 mg/kg DTX or equivalent
Protocol: Briefly, the samples were precipitated with three volumes of acetonitrile and analyzed using an LC-MS/MS system comprising a Waters ACQUITY ultra-high-performance liquid chromatography (UPLC) system (Waters Corporation, Milford, MA, USA) and an API 5500 mass spectrometer (AB Sciex LLC, Framingham, MA, USA) equipped with an electrospray ionization source. Separation was performed on an ACQUITY BEH C18 column (2.1 × 100 mm, 1.7 μm; Waters) using a gradient elution.
One hundred specific-pathogen-free (SPF) male Kunming mice (body weight: 22–24 g) were purchased from the Beijing Vital River Laboratory Animal Technology Co., Ltd. (Beijing, China). Mice were housed in an air-conditioned room maintained at 22–24 °C with a 12 h light/12 h dark cycle. Prior to the experiment, mice were fasted for 12 h with free access to water.
Mice were randomly divided by body weight into two main groups, each subdivided into 10 subgroups. […] At each time point post-administration (0.083, 0.25, 0.5, 1, 2, 3, 4, 6, 8, and 12 h), one subgroup of mice from each main group was anesthetized with Zoletil® 50. Systemic blood was collected and heparinized to prepare the plasma. Next, the animals were immediately euthanized by cervical dislocation under deep anesthesia prior to liver and lung excision. […]
Quantitative data are expressed as the mean ± SD.

SMILES: CC(=O)O[C@@]12CO[C@@H]1C[C@H](O)[C@@]1(C)C(=O)[C@H](O)C3=C(C)[C@@H](OC(=O)[C@H](O)[C@@H](NC(=O)OC(C)(C)C)c4ccccc4)C[C@@](O)([C@@H](OC(=O)c4ccccc4)[C@H]21)C3(C)C [DTX, docetaxel]
- t1/2: 2.6 h
